In publication PMC11166204, “Mapping the global interactome of the ARF family reveals spatial organization in cellular signaling pathways” (Journal of Cell Science, 2024):
pKd: −log10 of the molar value. Like-named read-outs stand apart in the source and are kept apart here. Each block holds one compound with its values, some of them ahead of it.

What was measured:
Type in all cases: binding
[1] = molecular target: T1, ARL10 (Homo sapiens, UniProt Q8N8L6); assay: co-purified nucleotide by ion-pair reversed-phase HPLC
T1 construct: GFP-tagged, purified from HEK293T cells
T1 sequence (Q8N8L6 1-244): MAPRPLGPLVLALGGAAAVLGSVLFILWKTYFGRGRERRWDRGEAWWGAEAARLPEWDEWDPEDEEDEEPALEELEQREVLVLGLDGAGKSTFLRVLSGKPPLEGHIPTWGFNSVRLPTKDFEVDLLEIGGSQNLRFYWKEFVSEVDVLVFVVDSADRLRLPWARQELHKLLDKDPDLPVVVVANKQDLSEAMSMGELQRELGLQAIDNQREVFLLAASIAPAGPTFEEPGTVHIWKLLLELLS

[2] = molecular target: T2, KRAS (Homo sapiens, UniProt P01116); assay: as above
T2 construct: GFP-tagged, purified from HEK293T cells

[3] = molecular target: T3, ARL11 (Homo sapiens, UniProt Q969Q4); assay: ITC; 1H-15N HSQC NMR
T3 construct: amino acids 1–196 (GST tag cleaved with thrombin)
T3 sequence (Q969Q4 whole entry, the tested form may be a part): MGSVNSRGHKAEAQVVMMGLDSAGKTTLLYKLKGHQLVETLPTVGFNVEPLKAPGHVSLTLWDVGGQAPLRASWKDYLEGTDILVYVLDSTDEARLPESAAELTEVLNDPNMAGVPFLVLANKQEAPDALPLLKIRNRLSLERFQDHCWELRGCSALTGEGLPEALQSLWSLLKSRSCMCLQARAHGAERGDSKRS

[4] = molecular target: T4, ARF1 (Homo sapiens, UniProt P84077); assay: co-purified nucleotide by ion-pair reversed-phase HPLC
T4 construct: GFP-tagged, purified from HEK293T cells
T4 sequence (P84077 2-181): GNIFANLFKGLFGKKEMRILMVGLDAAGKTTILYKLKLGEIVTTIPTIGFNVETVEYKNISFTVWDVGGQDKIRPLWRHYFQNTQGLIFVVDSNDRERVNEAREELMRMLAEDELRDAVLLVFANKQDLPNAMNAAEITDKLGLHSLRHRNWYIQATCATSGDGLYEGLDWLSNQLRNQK

[5] = molecular target: T1, ARL10; assay: as above; remark: listed apart in the source
[6] = molecular target: T5, KRAS (Homo sapiens, UniProt P01116, Q61L); assay: as above
T5 construct: GFP-tagged, purified from HEK293T cells

pKd ([3]; read-out: Kd): 5.76
SMILES: Nc1nc2c(ncn2[C@@H]2O[C@H](COP(=O)(O)OP(=O)(O)O)[C@@H](O)[C@H]2O)c(=O)[nH]1 [GDP]
co-purified nucleotide by ion-pair reversed-phase HPLC [1]: WT ARL10 co-precipitated with both GDP and GTP | co-purified nucleotide by ion-pair reversed-phase HPLC [2]: WT KRAS remained GDP loaded, as did WT ARF1 | co-purified nucleotide by ion-pair reversed-phase HPLC [4]: WT KRAS remained GDP loaded, as did WT ARF1

SMILES: Nc1nc2c(ncn2[C@@H]2O[C@H](COP(=O)(O)OP(=O)(O)OP(O)(O)=S)[C@@H](O)[C@H]2O)c(=O)[nH]1 [GTPγS]
pKd [3]: 8.82

% GTP [5]: 29 % GTP | % GTP [6]: 59 % GTP
SMILES: Nc1nc2c(ncn2[C@@H]2O[C@H](COP(=O)(O)OP(=O)(O)OP(=O)(O)O)[C@@H](O)[C@H]2O)c(=O)[nH]1 [GTP]
